Source: ChEMBL document CHEMBL5634177, “Isolation and Structure Determination of cis-OPDA-α-Monoglyceride from Arabidopsis thaliana” (J Nat Prod, 2024)
Activity calls are given as the source filed them. The calls are words filed in the database; no cut-off is given here.

Legend:
Assay type in all cases: functional, organism-based
Conditions in all cases: dose 50.0 µg
Bacillus subtilis = experiment: Antibacterial activity against Bacillus subtilis assessed as inhibition of bacterial growth at 50 ug incubated for 24 hrs by paper disc method
Staphylococcus aureus = experiment: Antibacterial activity against Staphylococcus aureus assessed as inhibition of bacterial growth at 50 ug incubated for 24 hrs by paper disc method
Escherichia coli = experiment: Antibacterial activity against Escherichia coli assessed as inhibition of bacterial growth at 50 ug incubated for 24 hrs by paper disc method

Row | SMILES | Activity (Bacillus subtilis) | Activity (Staphylococcus aureus) | Activity (Escherichia coli)
1 | CC/C=C\C[C@@H]1C(=O)C=C[C@@H]1CCCCCCCC(=O)O | Active | Active | inactive
2 | CC/C=C\C[C@@H]1C(=O)C=C[C@@H]1CCCCCCCC(=O)OCC(O)CO (some centres not stated) | Active | Active | inactive
3 | CC/C=C\C[C@H]1C(=O)CC[C@@H]1CC(=O)O | inactive | inactive | inactive
4 | OCC(O)CO | inactive | inactive | inactive
